Data published in PMC4784921, “Antioxidant Activity and α-Glucosidase Inhibitory Activities of the Polycondensate of Catechin with Glyoxylic Acid” (PLoS ONE, 2016).
In brackets after ≈: the same amount, converted by molar mass.

Target: T1, α-glucosidase (from Saccharomyces cerevisiae)
T1 construct: gene MAL12; commercial enzyme from Sigma (St. Louis, MO)
Test: absorbance at […] nm, pNP-G hydrolysis
Format: biochemical
Settings: pNP-G substrate (1 mL of 1 mM), 0.1 M PBS pH 6.9, 37°C, 10 min preincubation; mixed noncompetitive and anticompetitive

IC50: 239.27 µg/mL (≈ 824 µM)
Structure (SMILES): Oc1cc(O)c2c(c1)O[C@H](c1ccc(O)c(O)c1)[C@@H](O)C2 [catechin]
